Reference: patent US8153624B2, “Compounds and methods for modulating FXR” (Eli Lilly and Company, priority 2007, dated 2012)

Key:
[1] = target: T1, human FXR ligand-binding domain (Homo sapiens, UniProt Q96RI1); experiment: FXR-SRC-1 Cofactor Recruitment Assay (Alpha Screen); assay type: biochemical; conditions: FXR-SRC-1 interaction
T1 construct: purchased Invitrogen Corporation
T1 sequence (Q96RI1 242-472 isoform Q96RI1-2 limits assumed): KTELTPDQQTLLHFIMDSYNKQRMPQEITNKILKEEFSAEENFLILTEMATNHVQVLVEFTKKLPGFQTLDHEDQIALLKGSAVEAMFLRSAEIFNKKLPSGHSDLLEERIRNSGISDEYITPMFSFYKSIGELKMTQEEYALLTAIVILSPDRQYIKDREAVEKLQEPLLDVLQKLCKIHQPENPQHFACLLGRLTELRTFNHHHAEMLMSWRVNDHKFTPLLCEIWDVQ
T1 sequence (Q15788 600-774 partner limits assumed): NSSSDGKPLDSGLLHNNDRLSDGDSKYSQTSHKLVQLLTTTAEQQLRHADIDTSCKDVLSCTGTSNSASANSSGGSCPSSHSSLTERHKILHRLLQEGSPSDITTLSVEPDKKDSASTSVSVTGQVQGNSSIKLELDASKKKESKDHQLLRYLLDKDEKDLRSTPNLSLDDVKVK
Procedure: FXR-SRC-1 Cofactor Recruitment Assay
Compounds are evaluated by an FXR-SRC-1 Cofactor Recruitment assay using the Alpha (Amplified Luminescent Proximity Homogeneous Assay) Screen technology according to the manufacturer instructions (Perkin Elmer Corporation, Norwalk, Conn., USA) at various concentrations. Mix purified 6-HIS-tagged human FXR ligand-binding domain (amino acids 242-472), purified GST-tagged human SRC-1 nuclear receptor-interacting domain (amino acids 220-394), Nickel Chelate donor beads (Perkin Elmer Corporation) and Anti-GST antibody acceptor beads (Perkin Elmer Corporation) together and aliquot 12 μL per well into 384 well plates. Add compounds in 3 μL per well for a total assay volume of 15 μL and incubate at room temperature in the dark for 4 hours. After incubation, compounds that bind FXR and induce the interaction between the FXR and SRC-1 (available from Invitrogen Corporation Carlsbad, Calif., USA) would bring the two bead types into proximity generating luminescence that is quantified. Calculate EC50 values. Exemplified compounds of the invention are found to be effective in the SRC-1 FXR interaction assay with EC50s of about 38-5200 nM.

[2] = target: T2, Human FXR (Homo sapiens, UniProt Q96RI1); experiment: Human FXR/FXR-Response Element Luciferase Reporter Cotransfection Assay; assay type: cell-based
T2 construct: expressed in transfected cells
T2 sequence (Q96RI1 1-486): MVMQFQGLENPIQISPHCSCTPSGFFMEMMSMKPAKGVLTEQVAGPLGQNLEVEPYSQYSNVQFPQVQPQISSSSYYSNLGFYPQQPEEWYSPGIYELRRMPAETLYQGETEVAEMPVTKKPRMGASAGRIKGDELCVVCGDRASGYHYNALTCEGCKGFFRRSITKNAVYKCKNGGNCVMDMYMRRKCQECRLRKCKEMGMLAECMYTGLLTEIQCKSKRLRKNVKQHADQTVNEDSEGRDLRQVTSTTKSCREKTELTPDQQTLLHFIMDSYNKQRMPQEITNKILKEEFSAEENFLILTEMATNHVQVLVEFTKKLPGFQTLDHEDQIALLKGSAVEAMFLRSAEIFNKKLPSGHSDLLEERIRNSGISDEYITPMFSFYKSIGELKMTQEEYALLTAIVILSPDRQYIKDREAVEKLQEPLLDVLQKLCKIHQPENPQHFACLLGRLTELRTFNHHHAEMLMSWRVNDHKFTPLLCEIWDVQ
Procedure: Human FXR/FXR-Response Element Luciferase Reporter Cotransfection Assay
Compounds of the present invention are tested using the Human FXR/FXR-Response Element Luciferase Reporter Cotransfection Assay. The assay is performed essentially as described in J. Biological Chem. 2006, 281 (52), 39831-39838, except that 10 μg total DNA per million cells is used. One of skill in the art is able to perform this assay without undue experimentation.

[3] = test system: LDLR−/− mice; experiment: LDLR−/− Serum Lipid Modulation; assay type: in vivo; conditions: male LDLR−/− mice on western diet, 10 mg/kg once daily oral gavage, seven days
Procedure: LDLR−/− Serum Lipid Modulation
Acclimate animals for two weeks prior to study initiation. Maintain mice on a 12:12 hour light-dark cycle at 21° C. Provide deionized water ad libitum and maintain for two weeks on ‘western diet’ TD 88137 Diet (42% fat, 0.15% cholesterol, Harlan Teklad, Madison, Wis., USA) ad libitum. Optimize groups of five ten-week-old male LDLR−/− mice based on serum triglyceride and cholesterol levels. […] Separate lipoprotein fractions by FPLC, and quantify cholesterol with an in-line detection system. […] The colored product produced in the presence of cholesterol is monitored in the flow stream at 505 nm, and the analog voltage from the monitor is converted to a digital signal for collection and analysis. The change in voltage corresponding to change in cholesterol concentration is plotted vs. time, and the area under the curve corresponding to the elution of VLDL-C and HDL-C is calculated using Turbo Chrome® version 4.12F12 software (PerkinElmer Corporation). […]

| EC50 [1] | EC50 [2] | Compound | lowers total cholesterol [3] | lowers triglycerides [3] |
| --- | --- | --- | --- | --- |
| ~325 nM | 220 nM | O=C(O)c1ccc(N2CCC(OCc3c(-c4c(Cl)cccc4Cl)noc3C3CC3)CC2)cc1 [Example 7, 4-{4-[5-Cyclopropyl-3-(2,6-dichloro-phenyl)-isoxazol-4-ylmethoxy]-piperidin-1-yl}-benzoic acid] |  |  |
|  |  | Cc1cc(N2CCC(OCc3c(-c4c(Cl)cccc4Cl)noc3C3CC3)CC2)ccc1C(=O)O [Example 9, 4-{4-[5-Cyclopropyl-3-(2,6-dichloro-phenyl)-isoxazol-4-ylmethoxy]-piperidin-1-yl}-2-methyl-benzoic acid] | about 76% | about 75% |
